Common to all, as to test: DTP human tumour cell line panel, 48 h
For experiment [1], the system named is M14 melanoma.
Experiment [2] has as its system UACC-257 melanoma.
The test system of experiment [3] is OVCAR-8 ovarian.
For experiment [4], the system named is OVCAR-3 ovarian.
The test system of experiment [5] is OVCAR-4 ovarian.
The subject of experiment [6] is UACC-62 melanoma.
Experiment [7] concerns SF-539 CNS.
Experiment [8] deals with ACHN renal.

This passage reports TGI and GI50 results from PubChem BioAssay (NCI).

“And” between values parts separate entries of the source, which are not always exact repeats. Identical values can stand only once.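 Protocol summary: plate cells (96-well), add compound at 5 concentrations, incubate 48 h, interpolate endpoints linearly. GI50 = concentration required for 50% inhibition of growth. At the TGI there is no net growth.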 Where only a bound is given, the exact number is not on record here.

For orientation: TGI means the concentration giving total growth inhibition. Low readings indicate greater sensitivity of the cells, high ones lower sensitivity of the cells. Regarding `O=C(CC/C(CC(=O)c1ccc(Cl)cc1)=N\O)Nc1cccc(Cl)c1`, the TGI in experiment [1], in experiment [2], in experiment [3], in experiment [4], in experiment [5] and in experiment [6] was over 100 µM throughout. Also, the TGI in experiment [7] and in experiment [8] was over 100 µM each time.
As usually defined, the GI50 is the concentration at which growth is held to half of that of the control. `CC(=O)O[C@H]1C(=O)[C@@]2(C)C([C@H](OC(=O)c3ccccc3)[C@]3(O)C[C@H](OC(=O)[C@H](O)[C@@H](NC(=O)c4ccc(Cl)cc4)c4ccccc4)C(C)=C1C3(C)C)C1(OC(C)=O)CO[C@@H]1C[C@@H]2O` (stereo partly drawn): the total growth inhibition concentration (TGI) was 0.733 µM in experiment [1]; 25 µM and 36.8 µM in experiment [2]; 0.108 µM in experiment [4]; 25 µM and 68 µM in experiment [5]; 0.178 µM in experiment [6]; 0.273 µM and 0.0407 µM in experiment [7]. The TGI in experiment [8] was 25 µM and > 100 µM. Further, the 50% growth inhibitory concentration (GI50) is 0.013 µM in experiment [2], 4.89 µM in experiment [5], 0.0119 µM in experiment [7] and 10.3 µM in experiment [8].
For the compound `COc1ccc(C2=NOC3=c4ccccc4=CSC3=C2c2ccccc2)cc1`, the GI50 in experiment [1] was 26.3 µM; in experiment [2] it was 69.6 µM; in experiment [3] it was 42.9 µM; in experiment [4] it was 25 µM; in experiment [5] it was 49.7 µM; in experiment [6] it was 22 µM. The results for the GI50 in experiment [7] and in experiment [8] were 13.3 µM and 73.7 µM, respectively. Further, the TGI in experiment [1] was over 100 µM; in experiment [2], over 100 µM; in experiment [3], over 100 µM; in experiment [4] it was 79.5 µM; in experiment [5] it was over 100 µM; in experiment [6], 85 µM. The TGI is 37.5 µM in experiment [7] and over 100 µM in experiment [8].
As for `Clc1cc(Cl)cc(Nc2ccc3c(OCCCN4CCOCC4)cccc3n2)c1`, the GI50 in experiment [1] is 1.86 µM; in experiment [2], 2.05 µM; in experiment [3] it was 3.54 µM; in experiment [4], 2.92 µM; in experiment [5] it was 10.3 µM; in experiment [6], 2.01 µM. Also, the GI50 is 1.94 µM in experiment [7] and 3.02 µM in experiment [8]. In addition, the TGI is 4 µM in experiment [1]; 4.31 µM in experiment [2]; 13.3 µM in experiment [3]; 9.63 µM in experiment [4]; 22.2 µM in experiment [5]; 4.57 µM in experiment [6]. The TGI in experiment [7] was found to be 3.84 µM; in experiment [8], 10.3 µM.
Take `C=C(c1ccc(C(=O)NCCCn2ccnc2)cc1)c1cc2c(cc1C)C(C)(C)CCC2(C)C`: the GI50 was 0.0627 µM in experiment [1]; 2.95 µM in experiment [3]; 1.69 µM in experiment [4]; 4.1 µM in experiment [5]; 1.67 µM in experiment [6]; 0.0565 µM in experiment [7]. Besides, in experiment [8], the GI50 is 2.16 µM. The TGI is 2.04 µM in experiment [1]; 7.53 µM in experiment [2]; 10.7 µM in experiment [3]; 6.09 µM in experiment [4]; 26 µM in experiment [5]; 3.92 µM in experiment [6]. Further, the values for the TGI in experiment [7] and in experiment [8] were 2.17 µM and 14.1 µM, respectively.
As for `Fc1nc(Sc2ncnc3nc[nH]c23)nc(-c2c3ccccc3c3sc4ccccc4n23)n1`, the TGI in experiment [1], in experiment [2], in experiment [3], in experiment [4], in experiment [5] and in experiment [6] was over 100 µM throughout. The TGI in experiment [7] and in experiment [8] was over 100 µM each time.
Take `CC1(O)CC2C(CC1SCc1ccccc1)C2(C)C` (stereo not drawn): the TGI was 87.2 µM and 28.9 µM in experiment [1]; 59.5 µM and 24.7 µM in experiment [2]; > 100 µM and 30.9 µM in experiment [3]; 33.6 µM and 25.2 µM in experiment [4]; > 100 µM and 29.3 µM in experiment [5]; 92.3 µM and 33.4 µM in experiment [6]. The concentration for total growth inhibition (TGI) is 60.2 µM and 33.4 µM in experiment [7]; 34.5 µM and 30.4 µM in experiment [8]. For the same compound, the GI50 is 26.2 µM and 12 µM in experiment [2]; 52.8 µM and 15.6 µM in experiment [5].
Take `COc1cc(COC(=O)N(C)[C@@H](Cc2ccccc2)C(=O)O)c([N+](=O)[O-])cc1OC`: the TGI in experiment [1], in experiment [2], in experiment [3], in experiment [4], in experiment [6] and in experiment [7] was over 100 µM in each case. The compound also yielded a TGI in experiment [8] of over 100 µM.
`Cc1cn([C@H]2CN(O)C[C@@H](CO)O2)c(=O)[nH]c1=O`: the TGI in experiment [1], in experiment [2], in experiment [3], in experiment [5], in experiment [6] and in experiment [7] was over 100 µM each time. In experiment [8], this compound registered a total growth inhibition concentration (TGI) of over 100 µM.
